Test results: PubChem BioAssay AID330 (DTP/NCI, 2004)
“And” between values parts separate entries of the source, which are not always exact repeats. Identical values can stand only once. Toxic doses and inconclusive results are not listed. How the source made its calls: active means survival T/C of 150% or more; inactive means T/C below 125% in these data.

Tested on: P388 leukemia ip, CD2F1 mice, survival T/C
Test: NCI In Vivo Anticancer Drug Screen. Data for tumor model P388 Leukemia (intraperitoneal) in CD2F1 (CDF1) mice
Conditions: endpoint: median survival time, higher = longer survival
Procedure, shortened: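 Mice carrying the transplanted tumor received test compound or vehicle. Survival was recorded in each group, and the value is the treated-group measurement divided by that of the vehicle-treated control group.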

[1] = dose: 3.12 mg/kg/injection, schedule: Q01DX009 (ip), vehicle: saline with Tween-80
[2] = dose: 6.25 mg/kg/injection, schedule: Q01DX009 (ip), vehicle: saline with Tween-80
[3] = dose: 12.5 mg/kg/injection, schedule: Q01DX009 (ip), vehicle: saline with Tween-80
[4] = dose: 50.0 mg/kg/injection, schedule: Q01DX009 (ip), vehicle: saline with Tween-80
[5] = dose: 200.0 mg/kg/injection, schedule: Q01DX009 (ip), vehicle: saline with Tween-80
[6] = dose: 100.0 mg/kg/injection, schedule: Q01DX009 (ip), vehicle: saline with Tween-80
[7] = dose: 50.0 mg/kg/injection, schedule: Q01DX005 (ip), vehicle: Klucel (hydroxypropylcellulose) (HPC)
[8] = dose: 100.0 mg/kg/injection, schedule: Q01DX005 (ip), vehicle: Klucel (hydroxypropylcellulose) (HPC)
[9] = dose: 200.0 mg/kg/injection, schedule: Q01DX005 (ip), vehicle: Klucel (hydroxypropylcellulose) (HPC)
[10] = dose: 60.0 mg/kg/injection, schedule: Q01DX005 (ip), vehicle: Klucel (hydroxypropylcellulose) (HPC)
[11] = dose: 120.0 mg/kg/injection, schedule: Q01DX005 (ip), vehicle: Klucel (hydroxypropylcellulose) (HPC)
[12] = dose: 60.0 mg/kg/injection, schedule: Q01DX005 (ip), vehicle: saline with Tween-80
[13] = dose: 120.0 mg/kg/injection, schedule: Q01DX005 (ip), vehicle: saline with Tween-80

Measured: T/C

CS(=O)(=O)OCCF
inactive: dose: 0.78 mg/kg/injection, schedule: Q01DX009 (ip), vehicle: saline with Tween-80 97 % of control | dose: 1.56 mg/kg/injection, schedule: Q01DX009 (ip), vehicle: saline with Tween-80 100 % of control | [1] 103 % of control | dose: 3.96 mg/kg/injection, schedule: Q04DX003 (ip), vehicle: saline 109 % of control | dose: 6.0 mg/kg/injection, schedule: Q04DX003 (ip), vehicle: saline 104 % of control | [2] 105 % of control and 111 % of control | dose: 9.0 mg/kg/injection, schedule: Q04DX003 (ip), vehicle: saline 118 % of control | [3] 89 % of control

O=C(O)CC(=O)C(C(=O)O)C(CCc1ccccc1)C(C(=O)O)C(=O)CC(=O)O (stereo unspecified)
inactive: [1] 92 % of control | [2] 101 % of control | [3] 100 % of control | [4] 89 % of control and 92 % of control | [5] 90 % of control

O=C(Nc1cccc2c(OC(=O)C(Cl)Cl)c(N=Nc3ccc(S(=O)(=O)Nc4nccs4)cc3)cc(N=Nc3ccc(S(=O)(=O)Nc4nccs4)cc3)c12)C(Cl)Cl
inactive: [4] 109 % of control and 100 % of control and 104 % of control | [6] 108 % of control and 103 % of control and 106 % of control | [5] 107 % of control

O=c1[nH]nnc2c1ncn2C1OC(CO)C(O)C1O (stereo unspecified)
inactive: dose: 12.5 mg/kg/injection, schedule: Q01DX001 (ip), vehicle: saline 99 % of control | dose: 25.0 mg/kg/injection, schedule: Q01DX001 (ip), vehicle: saline 106 % of control | dose: 50.0 mg/kg/injection, schedule: Q01DX001 (ip), vehicle: saline 100 % of control | dose: 100.0 mg/kg/injection, schedule: Q01DX001 (ip), vehicle: saline 99 % of control

Cc1cc(C2(c3cc(C)c(O)c(CN(CC(=O)O)CC(=O)O)c3)OS(=O)(=O)c3ccccc32)cc(CN(CC(=O)O)CC(=O)O)c1O
inactive: dose: 50.0 mg/kg/injection, schedule: Q01DX009 (ip), vehicle: saline 105 % of control | dose: 100.0 mg/kg/injection, schedule: Q01DX009 (ip), vehicle: saline 96 % of control | dose: 200.0 mg/kg/injection, schedule: Q01DX009 (ip), vehicle: saline 104 % of control

O=c1c(CO)c(-c2ccccc2)oc2ccccc12
inactive: dose: 100.0 mg/kg/injection, schedule: Q04DX002 (ip), vehicle: Klucel (hydroxypropylcellulose) (HPC) 115 % of control | dose: 200.0 mg/kg/injection, schedule: Q04DX002 (ip), vehicle: Klucel (hydroxypropylcellulose) (HPC) 98 % of control | dose: 400.0 mg/kg/injection, schedule: Q04DX002 (ip), vehicle: Klucel (hydroxypropylcellulose) (HPC) 101 % of control

Cc1nc(-c2ccccc2)nc2c1nc(Cc1ccc(Cl)cc1)n2Nc1ccccc1
inactive: [7] 95 % of control | [8] 91 % of control | [9] 88 % of control

CC(=O)Nc1nc(C)c(CCCOc2ccc([N+](=O)[O-])cc2)c(=O)[nH]1
inactive: [10] 86 % of control | [11] 86 % of control

COc1ccc(CN2COc3c(cc(Cl)c4cccnc34)C2)cc1
inactive: dose: 100.0 mg/kg/injection, schedule: Q04DX003 (ip), vehicle: Klucel (hydroxypropylcellulose) (HPC) 96 % of control | dose: 200.0 mg/kg/injection, schedule: Q04DX003 (ip), vehicle: Klucel (hydroxypropylcellulose) (HPC) 104 % of control | dose: 400.0 mg/kg/injection, schedule: Q04DX003 (ip), vehicle: Klucel (hydroxypropylcellulose) (HPC) 95 % of control

CC(C)OC(=O)NP1(=O)NCc2ccccc2CN1
inactive: [7] 101 % of control | [8] 103 % of control | [9] 94 % of control

CC(C)(C)c1ccc(-c2cc3nc(C(F)(F)F)cc(=O)n3[nH]2)cc1
inactive: [12] 89 % of control | [13] 89 % of control | dose: 240.0 mg/kg/injection, schedule: Q01DX005 (ip), vehicle: saline with Tween-80 100 % of control

COc1ccc(OC)c2c1CCC1(C2)NC(=O)NC1=O (stereo unspecified)
inactive: [7] 111 % of control | [8] 100 % of control | [9] 95 % of control

CCOC(OCC)c1ccc(C)cc1
inactive: dose: 100.0 mg/kg/injection, schedule: Q04DX003 (ip), vehicle: saline with Tween-80 103 % of control | dose: 200.0 mg/kg/injection, schedule: Q04DX003 (ip), vehicle: saline with Tween-80 108 % of control | dose: 400.0 mg/kg/injection, schedule: Q04DX003 (ip), vehicle: saline with Tween-80 97 % of control

CCC(C)C[c-]1[c-][c-][c-][c-]1.CCC(C)C[c-]1[c-][c-][c-][c-]1.[Cl][Zr][Cl] (stereo unspecified)
inactive: [4] 90 % of control | [6] 88 % of control

O=C(N=C(N=C(c1ccccc1)N1CCOCC1)c1ccccc1)c1ccccc1
inactive: [4] 106 % of control | [6] 102 % of control | [5] 103 % of control

[Co].[N-]=C=S.[N-]=C=S.[N-]=C=S.[NH2-].[NH2-].[NH2-]
inactive: dose: 50.0 mg/kg/injection, schedule: Q01DX001 (ip), vehicle: saline with Tween-80 101 % of control | dose: 50.0 mg/kg/injection, schedule: Q01DX005 (ip), vehicle: saline 96 % of control | dose: 100.0 mg/kg/injection, schedule: Q01DX001 (ip), vehicle: saline with Tween-80 99 % of control and 94 % of control | dose: 100.0 mg/kg/injection, schedule: Q01DX005 (ip), vehicle: saline 113 % of control | dose: 200.0 mg/kg/injection, schedule: Q01DX001 (ip), vehicle: saline with Tween-80 98 % of control and 106 % of control | dose: 400.0 mg/kg/injection, schedule: Q01DX001 (ip), vehicle: saline with Tween-80 98 % of control

O=C(CCBr)NCCNC(=O)CCBr
inactive: dose: 43.75 mg/kg/injection, schedule: Q01DX009 (ip), vehicle: saline 105 % of control | dose: 87.5 mg/kg/injection, schedule: Q01DX009 (ip), vehicle: saline 103 % of control | dose: 175.0 mg/kg/injection, schedule: Q01DX009 (ip), vehicle: saline 108 % of control

CCCCN(CCCC)CCC(O)c1cc(-c2ccc(C(F)(F)F)cc2)nc(-c2ccc(C(F)(F)F)cc2)c1 (stereo unspecified)
inactive: [4] 111 % of control | [6] 106 % of control | [5] 101 % of control

C/C(=N\OCC(O)CNCCNC(=O)C(C)C)c1ccc(N(C)C)cc1 (stereo unspecified)
inactive: [10] 98 % of control | [11] 99 % of control

O=S(=O)(O)c1ccccc1P(c1ccccc1)c1ccccc1
inactive: [7] 98 % of control | [8] 94 % of control | [9] 88 % of control

COC1=CC(=O)c2ncccc2C1=O
inactive: dose: 1.56 mg/kg/injection, schedule: Q01DX009 (ip), vehicle: DMSO 101 % of control | dose: 3.13 mg/kg/injection, schedule: Q01DX009 (ip), vehicle: DMSO 100 % of control | dose: 6.25 mg/kg/injection, schedule: Q01DX009 (ip), vehicle: DMSO 100 % of control | dose: 12.5 mg/kg/injection, schedule: Q01DX009 (ip), vehicle: DMSO 111 % of control and 96 % of control | dose: 25.0 mg/kg/injection, schedule: Q01DX009 (ip), vehicle: DMSO 101 % of control and 113 % of control

O=[N+]([O-])C(CO)(CO)CC(F)(F)F
inactive: dose: 6.25 mg/kg/injection, schedule: Q04DX003 (ip), vehicle: saline 100 % of control

CSc1nc(-c2ccccc2)c(C(=O)NC(C)CN2CCCCC2)s1 (stereo unspecified)
inactive: [12] 95 % of control | [13] 100 % of control
